{"source": "patent US20110268688A1", "about": "“METHOD AND COMPOSITIONS FOR IMPROVING SKIN AND BODY APPEARANCE” (priority 2008, published 2011)", "system": "adipocytes", "assay": "Lypolysis Assay Kit (dual glycerol and free fatty acids detection), adipocyte lipolytic activity", "assay_type": "cell-based", "conditions": "forskolin 25, 2.5, 0.25 micromolar; conjugated linoleic acid 10, 1, 0.1 micromolar; 5 hours at 37° C.; optical density at 540 nanometers", "method": "Suitable lipolytic agents may be identified by conducting a simple test using a lipolysis assay kit purchased from Zen-Bio. One suitable kit is the Lypolysis Assay Kit (dual glycerol and free fatty acids detection, reagents+cells) purchased from Zen-Bio (www.zen-bio.com) under catalog no. LIP-3.\nThe adipocyte lipolytic activity of ingredients was tested using Lypolysis Assay Kit (dual glycerol and free fatty acids detection, reagents+cells) purchased from Zen-Bio (www.zen-bio.com) under catalog no. LIP-3. Serial dilutions of forskolin and conjugated linoleic acid were prepared in Krebs-Ringer Buffer containing 1% by weight free fatty acid bovine serum albumin. Culture medium was removed from the plate wells and the cells were washed with phosphate buffered saline. The forskolin test material was added to the test wells to provide wells having a total concentration of 25, 2.5, and 0.25 micromolar. The conjugated linoleic acid test material was added to the test wells to provide concentrations of 10, 1, and 0.1 micromolar. The plate was incubated for 5 hours at 37° C. Fifty microliters of test material was removed from each plate and transferred to clean wells. Triglyceride breakdown was tested by measuring for the presence of glycerol or NEFA (non-esterified fatty acids). […] The optical density of each well of the glycerol and NEFA plate wells was measured at 540 nanometers.", "data": [{"substance": "conjugated linoleic acid", "values": [{"measurement": "adipocyte lipolytic activity (triglyceride breakdown, glycerol or NEFA)", "result": "effective in increasing lipolysis of adipocytes"}]}]}
